Where “and” joins values, the source holds several entries; their conditions need not be identical. Equal entries are not always repeated. Where two headings read alike, the source gives them in different places.
What was measured:
[1] = tested on: HeLa cells expressing mt-Keima and YFP-Parkin (HeLa MKYP); assay: Human mt-Keima mitophagy assay; type: cell-based; conditions: Homo sapiens
Protocol: Briefly, HeLa cells expressing mt-Keima and YFP-Parkin (HeLa MKYP) were plated at 10,000 cells/well in 96 well plates along with compounds at various concentrations. Following 16 hrs of incubation, cells were treated with 1 uM FCCP/oligomycin for 6 hours, then analyzed via FACS for the presence of mitochondria in lysosomes (as determined by an emissions spectrum shift from the pH-sensitive mt-Keima tag).

SKOV3 cells = assay: In vitro mitosafety (glucose/galactose) assay; conditions: highest mito-safe dose = highest concentration at which gal/glc>0.80 (IC20) in SKOV3 cells, divided by mt-Keima EC50
Protocol: Briefly, SKOV3 cells (ATCC HTB-77) were plated in DMEM (Corning 10-013-CV) medium containing 25 mM glucose or DMEM with no glucose (Gibco 11966-025) supplemented with 10 mM galactose at 9,000 cells/well in 96 well plates (Corning costar 3610). 24 hrs later, compounds, in DMSO, were added at various concentrations to a final 0.1% DMSO for all wells. […] After a 15 minute incubation cellular ATP levels were read out using a Promega GloMax® DiscoverMicroplate Reader.
The ratio of relative CellTiter-Glo values from cells grown in galactose to cells grown in glucose was determined (gal/glc ratio). The gal/glc ratio vs concentration is then graphed, and non-linear regression is used to find the highest concentration of MTK compound at which gal/glc>0.80 (the “highest mito-safe dose”, or IC20).

[2] = HeLa MKYP cells, 16 hrs with compound, then 1 uM FCCP/oligomycin for 6 hours, FACS, read-out: EC50 in HeLa mt-Keima Mitophagy Assay

Row | SMILES | EC50 [1, 2] | Mito-Safety Index (highest mito-safe dose/mt-Keima EC50) (SKOV3 cells) | EC50 ([1]; HeLa, refers to the table, read-out: EC50)
1 | CC(C)(C#N)CC[C@@H]1COc2ccccc2[C@H]1Nc1ncnc2[nH]c(C3CC3)cc12 (relative stereo) [EP-0042291, 4-[trans-4-[(6-cyclopropyl-7H-pyrrolo[2,3-d]pyrimidin-4-yl)amino]chroman-3-yl]-2,2-dimethyl-butanenitrile] | 78 nM | 64.67 | 
2 | FC(F)(F)c1cc2c(N[C@H]3CC4(CCCC4)Oc4ccccc43)ncnc2[nH]1 (single isomer, unassigned) [EP-0041356, N-spiro[chromane-2,1′-cyclopentane]-4-yl-6-(trifluoromethyl)-7H-pyrrolo[2,3-d]pyrimidin-4-amine] | 414 nM | 60.24 | 
3 | COCC[C@@H]1COc2ccccc2[C@H]1Nc1ncnc2[nH]c(C(F)(F)F)cc12 (single isomer, unassigned) [EP-0041398, N-[trans-3-(2-methoxyethyl)chroman-4-yl]-6-(trifluoromethyl)-7H-pyrrolo[2,3-d]pyrimidin-4-amine] | 356 nM | 43.54 | 
4 | COCCCC1COc2ccccc2C1Nc1ncnc2[nH]c(C(F)(F)F)cc12 (single isomer, unassigned) [EP-0041483, N-[3-(3-methoxypropyl)chroman-4-yl]-6-(trifluoromethyl)-7H-pyrrolo[2,3-d]pyrimidin-4-amine] | 70 nM | 48.05 | 
5 | CC(C)(C#N)CCC1COc2ccccc2C1Nc1ncnc2[nH]c(C3CC3)cc12 (single isomer, unassigned) [EP-0042850, 4-[trans-4-[(6-cyclopropyl-7H-pyrrolo[2,3-d]pyrimidin-4-yl)amino]chroman-3-yl]-2,2-dimethyl-butanenitrile] | 90 nM | 70.99 | 
6 | COC[C@]1(C)C[C@@H](Nc2ncnc3[nH]c(C(F)(F)F)cc23)c2ccccc2O1 (single isomer, unassigned) [EP-0043980] | 100 nM | 73.0 | 
7 | CC(C)(C#N)CO[C@@H]1COc2ccccc2[C@H]1Nc1ncnc2[nH]c(C3CC3)cc12 (stereo in doubt) [EP-0042976, 3-[(3S,4R)-4-[(6-cyclopropyl-7H-pyrrolo[2,3-d]pyrimidin-4-yl)amino]chroman-3-yl]oxy-2,2-dimethyl-propanenitrile] | 53 nM | 302.16 | 
8 | FC(F)(F)c1cc2c(NC3CC4(CCCC4)Oc4ccccc43)ncnc2[nH]1 (stereo not drawn) [EP-0041220] | 608 nM | 41.11 | 
9 | COCC[C@H]1COc2ccccc2[C@@H]1Nc1ncnc2[nH]c(C(F)(F)F)cc12 [EP-0041252] | 634 nM | 39.13 | 
10 | COCCO[C@H]1COc2cc(F)ccc2[C@@H]1Nc1ncnc2[nH]c(C3CC3)cc12 [EP-0042287, 6-cyclopropyl-N-[(3R,4S)-7-fluoro-3-(2-methoxyethoxy)chroman-4-yl]-7H-pyrrolo[2,3-d]pyrimidin-4-amine] | 180 nM | 38.56 | 
11 | COCCO[C@H]1COc2cc(F)ccc2[C@@H]1Nc1ncnc2[nH]c(C(F)(F)F)cc12 [EP-0042288, N-[(3R,4S)-7-fluoro-3-(2-methoxyethoxy)chroman-4-yl]-6-(trifluoromethyl)-7H-pyrrolo[2,3-d]pyrimidin-4-amine] | 397 nM | 40.57 | 
12 | COCCCO[C@H]1COc2ccccc2[C@@H]1Nc1ncnc2[nH]c(C3CC3)cc12 [EP-0042529, 4,6-cyclopropyl-N-[(3R,4S)-3-(3-methoxypropoxy)chroman-4-yl]-7H-pyrrolo[2,3-d]pyrimidin-4-amine] | 95 nM | 80.20 | 
13 | COC(C)(C)CO[C@H]1COc2ccccc2[C@@H]1Nc1ncnc2[nH]c(C3CC3)cc12 [EP-0042538, 6-cyclopropyl-N-[(3R,4S)-3-(2-methoxy-2-methyl-propoxy)chroman-4-yl]-7H-pyrrolo[2,3-d]pyrimidin-4-amine] | 30 nM | 51.11 | < 0.03 nM
14 | CC(C)(O)CO[C@H]1COc2ccccc2[C@@H]1Nc1ncnc2[nH]c(C3CC3)cc12 [EP-0042541, 1-[(3R,4S)-4-[(6-cyclopropyl-7H-pyrrolo[2,3-d]pyrimidin-4-yl)amino]chroman-3-yl]oxy-2-methyl-propan-2-ol] | 123 nM | 50.82 | 
15 | COC(C)(C)CO[C@H]1COc2ccccc2[C@@H]1Nc1ncnc2[nH]c(C(F)(F)F)cc12 [EP-0042655, N-[(3R,4S)-3-(2-methoxy-2-methyl-propoxy)chroman-4-yl]-6-(trifluoromethyl)-7H-pyrrolo[2,3-d]pyrimidin-4-amine] | 119 nM | 38.50 | 
16 | CC(C)(O)CO[C@H]1COc2ccccc2[C@@H]1Nc1ncnc2[nH]c(C(F)(F)F)cc12 [EP-0042979, 2-methyl-1-[(3R,4S)-4-[[6-(trifluoromethyl)-7H-pyrrolo[2,3-d]pyrimidin-4-yl]amino]chroman-3-yl]oxy-propan-2-ol] | 468 nM | 53.45 | 
17 | CC(C)(C#N)CO[C@H]1COc2ccccc2[C@@H]1Nc1ncnc2[nH]c(C(F)(F)F)cc12 [EP-0043230, 2,2-dimethyl-3-[(3R,4S)-4-[[6-(trifluoromethyl)-7H-pyrrolo[2,3-d]pyrimidin-4-yl]amino]chroman-3-yl]oxy-propanenitrile] | 417 nM | 43.73 | 
18 | CC(C)(F)CO[C@H]1COc2ccccc2[C@@H]1Nc1ncnc2[nH]c(C(F)(F)F)cc12 [EP-0043741, N-[(3R,4S)-3-(2-fluoro-2-methyl-propoxy)chroman-4-yl]-6-(trifluoromethyl)-7H-pyrrolo[2,3-d]pyrimidin-4-amine] | 510 nM | 49.0 | 
19 | FC(F)(F)c1cc2c(N[C@H]3c4ccccc4OC[C@@H]3OCC3CC3)ncnc2[nH]1 [EP-0043810, N-((3R,4S)-3-(cyclopropylmethoxy)chroman-4-yl)-6-(trifluoromethyl)-7H-pyrrolo[2,3-d]pyrimidin-4-amine] | 540 nM | 46.3 | 
20 | CCO[C@H]1COc2ccccc2[C@@H]1Nc1ncnc2[nH]c(C(F)(F)F)cc12 [EP-0043811, N-((3R,4S)-3-ethoxychroman-4-yl)-6-(trifluoromethyl)-7H-pyrrolo[2,3-d]pyrimidin-4-amine] | 930 nM | 26.9 | 
21 | CC(C)CO[C@H]1COc2ccccc2[C@@H]1Nc1ncnc2[nH]c(C(F)(F)F)cc12 [EP-0043813, N-((3R,4S)-3-isobutoxychroman-4-yl)-6-(trifluoromethyl)-7H-pyrrolo[2,3-d]pyrimidin-4-amine] | 170 nM | 147.1 | 
22 | Fc1ccc2c(c1)OC[C@H](OCC1CC1)[C@H]2Nc1ncnc2[nH]c(C(F)(F)F)cc12 [EP-0043819, N-((3R,4S)-3-(cyclopropylmethoxy)-7-fluorochroman-4-yl)-6-(trifluoromethyl)-7H-pyrrolo[2,3-d]pyrimidin-4-amine] | 680 nM | 36.7 | 
23 | FC(F)(F)c1cc2c(N[C@H]3c4ccccc4OC[C@@H]3OCC3COC3)ncnc2[nH]1 [EP-0043826, N-((3R,4S)-3-(oxetan-3-ylmethoxy)chroman-4-yl)-6-(trifluoromethyl)-7H-pyrrolo[2,3-d]pyrimidin-4-amine] | 280 nM | 60.4 and 60.3 | 
24 | FC(F)(F)c1cc2c(N[C@H]3c4ccccc4OC[C@@H]3OCC3CCOC3)ncnc2[nH]1 (stereo partly drawn) [EP-0043842, N-((3R,4S)-3-((tetrahydrofuran-3-yl)methoxy)chroman-4-yl)-6-(trifluoromethyl)-7H-pyrrolo[2,3-d]pyrimidin-4-amine] | 620 nM | 38.4 | 
25 | CC(C)CO[C@H]1COc2ccccc2[C@@H]1Nc1nccc2[nH]c(C(F)(F)F)cc12 [EP-0043866] | 340 nM | 32.6 | 

— US20240376111A1, “COMPOSITIONS AND METHODS OF USING THE SAME FOR TREATMENT OF NEURODEGENERATIVE AND MITOCHONDRIAL DISEASE” (Mitokinin, Inc., priority 2021, published 2024)
